# Reference: ChEMBL document CHEMBL3734649, “H2O-mediated isatin spiro-epoxide ring opening with NaCN: Synthesis of novel 3-tetrazolylmethyl-3-hydroxy-oxindole hybrids and their anticancer evaluation” (Eur J Med Chem, 2015)
# Calls of active or inactive are those of the source. The rule behind the calls is not given here.
# Legend:
# [1] = Anticancer activity against human PC3 cells after 48 hrs by MTT assay; assay type: functional, cell-based; conditions: PC-3, 48 h
# [2] = Anticancer activity against human BT549 cells after 48 hrs by MTT assay; assay type: functional, cell-based; conditions: BT-549, 48 h
# [3] = Anticancer activity against human PA1 cells after 48 hrs by MTT assay; assay type: functional, cell-based; conditions: PA-1, 48 h
# [4] = Anticancer activity against human DU145 cells after 48 hrs by MTT assay; assay type: functional, cell-based; conditions: DU-145, 48 h
# MDA-MB-231 = test: Anticancer activity against human MDA-MB-231 cells after 48 hrs by MTT assay; assay type: functional, cell-based; conditions: MDA-MB-231, 48 h
# [5] = Cytotoxicity against human RWPE1 cells after 48 hrs by MTT assay; assay type: cell-based; conditions: RWPE-1, 48 h
# DU-145 [6] = test: Induction of apoptosis in human DU145 cells assessed as late apoptotic cells at 1.25 uM after 24 hrs by annexin V-FITC/propidium iodide staining based flow cytometric analysis (reference value: 4.48%); assay type: functional
# DU-145 [7] = test: Induction of DNA fragmentation in human DU145 cells assessed as smear formation at 1.25 to 2.5 uM after ethidium bromide staining based agarose gel electrophoresis; assay type: functional, cell-based
# DU-145 [8] = test: Induction of apoptosis in human DU145 cells assessed as cell shrinkage at 1.25 to 5 uM after 48 hrs by acridine orange/ethidium bromide staining based fluorescent microscopic analysis; assay type: functional
# DU-145 [9] = test: Induction of apoptosis in human DU145 cells assessed as loss of mitochondrial membrane potential at 5 uM after 24 hrs by rhodamine 123 based spectrofluorometric analysis relative to control; assay type: functional
# [10] = Cell cycle arrest in human DU145 cells assessed as accumulation at S phase at 8 uM after 24 hrs by propidium iodide staining based flow cytometric analysis (reference value: 3.39%); assay type: functional; conditions: DU-145
# DU-145 [11] = test: Induction of apoptosis in human DU145 cells assessed as apoptotic bodies at 1.25 to 5 uM after 48 hrs by acridine orange/ethidium bromide staining based fluorescent microscopic analysis; assay type: functional, cell-based
# DU-145 [12] = test: Induction of apoptosis in human DU145 cells assessed as ROS production after 24 hrs by carboxy-DCFDA based fluorescence microscopic analysis; assay type: functional, cell-based
# DU-145 [13] = test: Induction of apoptosis in human DU145 cells assessed as […] deformation at 1.25 to 5 uM after 24 hrs by phase contrast microscopic analysis; assay type: functional, cell-based
# [14] = Cell cycle arrest in human DU145 cells assessed as accumulation at G1 phase at 4 uM after 24 hrs by propidium iodide staining based flow cytometric analysis (reference value: 78.18%); assay type: functional; conditions: DU-145
# [15] = Cell cycle arrest in human DU145 cells assessed as accumulation at G2/M phase at 2 uM after 24 hrs by propidium iodide staining based flow cytometric analysis (reference value: 16.66%); assay type: functional; conditions: DU-145
# DU-145 [16] = test: Induction of apoptosis in human DU145 cells assessed as condensed,pyknotic and fragmented nuclei at 1.25 to 5 uM after 48 hrs by DAPI staining based fluorescent microscopic analysis; assay type: functional, cell-based
# DU-145 [17] = test: Induction of DNA fragmentation in human DU145 cells assessed as DNA ladder formation at 5 uM after ethidium bromide staining based agarose gel electrophoresis; assay type: functional, cell-based
# DU-145 [18] = test: Induction of apoptosis in human DU145 cells assessed as early apoptotic cells at 2.5 uM after 24 hrs by annexin V-FITC/propidium iodide staining based flow cytometric analysis (reference value: 3.11%); assay type: functional
# [19] = Cell cycle arrest in human DU145 cells assessed as accumulation at G1 phase at 2 uM after 24 hrs by propidium iodide staining based flow cytometric analysis (reference value: 78.18%); assay type: functional; conditions: DU-145
# DU-145 [20] = test: Induction of apoptosis in human DU145 cells assessed as dead cells at 5 uM after 24 hrs by annexin V-FITC/propidium iodide staining based flow cytometric analysis (reference value: 2.78%); assay type: functional
# DU-145 [21] = test: Induction of apoptosis in human DU145 cells assessed as chromatin condensation at 1.25 to 5 uM after 48 hrs by acridine orange/ethidium bromide staining based fluorescent microscopic analysis; assay type: functional, cell-based
# DU-145 [22] = test: Induction of apoptosis in human DU145 cells assessed as dead cells at 1.25 uM after 24 hrs by annexin V-FITC/propidium iodide staining based flow cytometric analysis (reference value: 2.78%); assay type: functional
# [23] = Cell cycle arrest in human DU145 cells assessed as accumulation at G2/M phase at 4 uM after 24 hrs by propidium iodide staining based flow cytometric analysis (reference value: 16.66%); assay type: functional; conditions: DU-145
# [24] = Cell cycle arrest in human DU145 cells assessed as accumulation at G2/M phase at 8 uM after 24 hrs by propidium iodide staining based flow cytometric analysis (reference value: 16.66%); assay type: functional; conditions: DU-145
# [25] = Cell cycle arrest in human DU145 cells assessed as accumulation at S phase at 2 uM after 24 hrs by propidium iodide staining based flow cytometric analysis (reference value: 3.39%); assay type: functional; conditions: DU-145
# DU-145 [26] = test: Induction of apoptosis in human DU145 cells assessed as late apoptotic cells at 2.5 uM after 24 hrs by annexin V-FITC/propidium iodide staining based flow cytometric analysis (reference value: 4.48%); assay type: functional
# DU-145 [27] = test: Induction of apoptosis in human DU145 cells assessed as viable cells at 5 uM after 24 hrs by annexin V-FITC/propidium iodide staining based flow cytometric analysis (reference value: 89.63%); assay type: functional; conditions: DU-145, 24 h, read-out: Activity
# DU-145 [28] = test: Induction of apoptosis in human DU145 cells assessed as late apoptotic cells at 5 uM after 24 hrs by annexin V-FITC/propidium iodide staining based flow cytometric analysis (reference value: 4.48%); assay type: functional
# DU-145 [29] = test: Induction of apoptosis in human DU145 cells assessed as viable cells at 1.25 uM after 24 hrs by annexin V-FITC/propidium iodide staining based flow cytometric analysis (reference value: 89.63%); assay type: functional; conditions: DU-145, 24 h, read-out: Activity
# DU-145 [30] = test: Induction of apoptosis in human DU145 cells assessed as viable cells at 2.5 uM after 24 hrs by annexin V-FITC/propidium iodide staining based flow cytometric analysis (reference value: 89.63%); assay type: functional; conditions: DU-145, 24 h, read-out: Activity
# DU-145 [31] = test: Induction of apoptosis in human DU145 cells assessed as membrane blebbing at 1.25 to 5 uM after 48 hrs by acridine orange/ethidium bromide staining based fluorescent microscopic analysis; assay type: functional, cell-based
# DU-145 [32] = test: Induction of apoptosis in human DU145 cells assessed as apoptotic bodies at 1.25 to 5 uM after 24 hrs by phase contrast microscopic analysis; assay type: functional, cell-based
# DU-145 [33] = test: Induction of apoptosis in human DU145 cells assessed as reduction in viable cells at 1.25 to 5 uM after 24 hrs by phase contrast microscopic analysis; assay type: functional, cell-based
# DU-145 [34] = test: Induction of apoptosis in human DU145 cells assessed as early apoptotic cells at 5 uM after 24 hrs by annexin V-FITC/propidium iodide staining based flow cytometric analysis (reference value: 3.11%); assay type: functional
# [35] = Cell cycle arrest in human DU145 cells assessed as accumulation at G1 phase at 8 uM after 24 hrs by propidium iodide staining based flow cytometric analysis (reference value: 78.18%); assay type: functional; conditions: DU-145
# [36] = Selectivity index, ratio of IC50 for human RWPE1 cells to IC50 for human DU145 cells; assay type: functional
# [37] = Cell cycle arrest in human DU145 cells assessed as accumulation at S phase at 4 uM after 24 hrs by propidium iodide staining based flow cytometric analysis (reference value: 3.39%); assay type: functional; conditions: DU-145
# DU-145 [38] = test: Induction of apoptosis in human DU145 cells assessed as early apoptotic cells at 1.25 uM after 24 hrs by annexin V-FITC/propidium iodide staining based flow cytometric analysis (reference value: 3.11%); assay type: functional
# DU-145 [39] = test: Induction of apoptosis in human DU145 cells assessed as cell shrinkage at 1.25 to 5 uM after 24 hrs by phase contrast microscopic analysis; assay type: functional, cell-based
# DU-145 [40] = test: Induction of apoptosis in human DU145 cells assessed as dead cells at 2.5 uM after 24 hrs by annexin V-FITC/propidium iodide staining based flow cytometric analysis (reference value: 2.78%); assay type: functional
# DU-145 [41] = test: Anticlonogenic activity against human DU145 cells assessed as inhibition of colony formation of cells incubated for 24 hrs followed by compound washout measured after 14 days by methylene-blue staining-based assay; assay type: functional, cell-based
# DU-145 [42] = test: Induction of apoptosis in human DU145 cells after 24 hrs by annexin V-FITC/propidium iodide staining based flow cytometric analysis; assay type: functional, cell-based
smiles,measurement,setting,value
O=c1[nH]cc(F)c(=O)[nH]1 [FLUOROURACIL],IC50,[1],68.3 µM
same,IC50,[2],19.8 µM
same,IC50,[3],7.59 µM
same,IC50,[4],39.2 µM
same,IC50,MDA-MB-231,45.4 µM
O=C1N(Cc2ccccc2)c2ccc(Br)cc2C1(O)Cc1nnn[nH]1 (configuration not stated),IC50,[1],75.8 µM
same,IC50,[2],39.6 µM
same,IC50,[3],74.4 µM
same,IC50,[4],46.2 µM
same,IC50,MDA-MB-231,96.1 µM
O=C1N(Cc2ccc(Br)cc2)c2ccc(F)cc2C1(O)Cc1nnn[nH]1 (configuration not stated),IC50,[1],> 100 µM
same,IC50,[5],> 100 µM
same,IC50,[2],> 100 µM
same,IC50,[3],> 100 µM
same,IC50,[4],14.4 µM
same,IC50,MDA-MB-231,> 100 µM
Cc1ccc2c(c1)C(O)(Cc1nnn[nH]1)C(=O)N2Cc1ccccc1 (configuration not stated),Activity,DU-145 [6],8.51%
same,Activity,DU-145 [7],Active
same,Activity,DU-145 [8],Active
same,Activity,DU-145 [9],45.4%
same,Activity,[10],7.34%
same,Activity,DU-145 [11],Active
same,Activity,DU-145 [12],Dose-dependent effect
same,Activity,DU-145 [13],Active
same,Activity,[14],36.3%
same,Activity,[15],39.8%
same,Activity,DU-145 [16],Active
same,Activity,DU-145 [17],Active
same,Activity,DU-145 [18],27%
same,IC50,[1],11.7 µM
same,Activity,[19],44.8%
same,Activity,DU-145 [20],1.31%
same,IC50,[5],20.9 µM
same,Activity,DU-145 [21],Active
same,Activity,DU-145 [22],6.27%
same,IC50,[2],91.5 µM
same,Activity,[23],52.8%
same,IC50,[3],33.9 µM
same,Activity,[24],72.8%
same,Activity,[25],12.3%
same,Activity,DU-145 [26],11.6%
same,viability at 5 µM,DU-145 [27],41.3%
same,Activity,DU-145 [28],12.59%
same,viability at 1.25 µM,DU-145 [29],68.6%
same,viability at 2.5 µM,DU-145 [30],58.1%
same,Activity,DU-145 [31],Active
same,Activity,DU-145 [32],Active
same,Activity,DU-145 [33],Active
same,Activity,DU-145 [34],44.77%
same,Activity,[35],17%
same,Ratio IC50,[36],5
same,Activity,[37],6.71%
same,Activity,DU-145 [38],16.63%
same,IC50,[4],4.26 µM
same,Activity,DU-145 [39],Active
same,Activity,DU-145 [40],3.2%
same,IC50,MDA-MB-231,> 100 µM
same,Activity,DU-145 [41],Dose-dependent effect
same,Activity,DU-145 [42],Dose-dependent effect
O=C1N(Cc2ccc(Br)cc2)c2ccccc2C1(O)Cc1nnn[nH]1 (configuration not stated),IC50,[1],10.1 µM
same,IC50,[5],76 µM
same,IC50,[2],73.4 µM
same,IC50,[3],38.9 µM
same,Ratio IC50,[36],10
same,IC50,[4],7.01 µM
same,IC50,MDA-MB-231,> 100 µM
O=C1N(Cc2ccccc2)c2ccccc2C1(O)Cc1nnn[nH]1 (configuration not stated),IC50,[1],> 100 µM
same,IC50,[2],> 100 µM
same,IC50,[3],> 100 µM
same,IC50,[4],> 100 µM
same,IC50,MDA-MB-231,74.1 µM
CN1C(=O)C(O)(Cc2nnn[nH]2)c2cc(F)ccc21 (configuration not stated),IC50,[1],38.2 µM
same,IC50,[2],> 100 µM
same,IC50,[3],> 100 µM
same,IC50,[4],> 100 µM
same,IC50,MDA-MB-231,> 100 µM
CN1C(=O)C(O)(Cc2nnn[nH]2)c2cc(Cl)ccc21 (configuration not stated),IC50,[1],> 100 µM
same,IC50,[2],> 100 µM
same,IC50,[3],> 100 µM
same,IC50,[4],76 µM
same,IC50,MDA-MB-231,> 100 µM
CCN1C(=O)C(O)(Cc2nnn[nH]2)c2cc(C)ccc21 (configuration not stated),IC50,[1],> 100 µM
same,IC50,[5],> 100 µM
same,IC50,[2],> 100 µM
same,IC50,[3],> 100 µM
same,IC50,[4],14.6 µM
same,IC50,MDA-MB-231,> 100 µM
